Assay results published in ChEMBL document CHEMBL1201861, “Genomics of Drug Sensitity in Cancer screening data, Wellcome Trust Sanger Institute”.

Columns and labels:
Test in all cases: cells
Conditions in all cases: Homo sapiens
SW 954 = format: functional, cell-based;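 note: growth inhibition of SW954 human cancer cells, read out as cell viability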
Description: SANGER: Inhibition of human SW954 cell growth in a cell viability assay.

OMC-1 = format: functional, cell-based;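 note: growth inhibition of the OMC-1 cell line, measured by a cell viability assay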
Description: SANGER: Inhibition of human OMC-1 cell growth in a cell viability assay.

SBC-1 = format: functional, cell-based;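 note: cell viability assay measuring growth inhibition of the SBC-1 cell line, IC50 being the concentration that halves growth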
Description: SANGER: Inhibition of human SBC-1 cell growth in a cell viability assay.

GI-1 = format: functional, cell-based
Description: SANGER: Inhibition of human GI-1 cell growth in a cell viability assay.

EOL1 = format: functional, cell-based;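 note: growth inhibition of EoL-1 cells, read out by a cell viability assay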
Description: SANGER: Inhibition of human EoL-1-cell cell growth in a cell viability assay.

ES1 = format: functional, cell-based;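 note: growth inhibition of ES1 cells, read out with a cell viability assay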
Description: SANGER: Inhibition of human ES1 cell growth in a cell viability assay.

IST-SL1 = format: functional, cell-based;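 note: growth inhibition of human IST-SL1 cells, read out with a cell viability assay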
Description: SANGER: Inhibition of human IST-SL1 cell growth in a cell viability assay.

TK-10 = format: functional, cell-based;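 note: growth inhibition of TK-10 cells, read out in a cell viability assay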
Description: SANGER: Inhibition of human TK10 cell growth in a cell viability assay.

KG-1 = format: functional, cell-based;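 note: growth inhibition of KG-1 cells, read out by a cell viability assay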
Description: SANGER: Inhibition of human KG-1 cell growth in a cell viability assay.

SK-MEL-2 = format: functional, cell-based;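 note: growth inhibition of human SK-MEL-2 cells measured with a cell viability assay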
Description: SANGER: Inhibition of human SK-MEL-2 cell growth in a cell viability assay.

SH-4 = format: functional, cell-based;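 note: growth inhibition of SH-4 cells, read out with a cell viability assay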
Description: SANGER: Inhibition of human SH-4 cell growth in a cell viability assay.

697 = format: functional, cell-based
Description: SANGER: Inhibition of human 697 cell growth in a cell viability assay.

GR-ST = format: functional, cell-based
Description: SANGER: Inhibition of human GR-ST cell growth in a cell viability assay.

ES5 = format: functional, cell-based;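 note: growth inhibition of human ES5 cells, read out by a cell viability assay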
Description: SANGER: Inhibition of human ES5 cell growth in a cell viability assay.

SCH = format: functional, cell-based;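 note: growth inhibition of human SCH cells, read out in a cell viability assay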
Description: SANGER: Inhibition of human SCH cell growth in a cell viability assay.

SHP77 = format: functional, cell-based, SHP-77;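 note: growth inhibition of human SHP-77 cells measured by a cell viability assay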
Description: SANGER: Inhibition of human SHP-77 cell growth in a cell viability assay.

A704 = format: functional, cell-based;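 note: growth inhibition of human A704 cells, read out with a cell viability assay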
Description: SANGER: Inhibition of human A704 cell growth in a cell viability assay.

LAN-6 = format: functional, cell-based;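 note: growth inhibition of LAN-6 cells, determined with a cell viability assay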
Description: SANGER: Inhibition of human LAN-6 cell growth in a cell viability assay.

LOX IMVI = format: functional, cell-based
Description: SANGER: Inhibition of human LOXIMVI cell growth in a cell viability assay.

MZ1-PC = format: functional, cell-based;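 note: cell viability assay measuring growth inhibition of human MZ1-PC cells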
Description: SANGER: Inhibition of human MZ1-PC cell growth in a cell viability assay.

NCI-H1838 = format: functional, cell-based;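 note: growth inhibition of NCI-H1838 cells, determined with a cell viability readout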
Description: SANGER: Inhibition of human NCI-H1838 cell growth in a cell viability assay.

JAR = format: functional, cell-based;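 note: growth inhibition of human JAR cells determined with a cell viability assay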
Description: SANGER: Inhibition of human JAR cell growth in a cell viability assay.

KLE = format: functional, cell-based;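 note: growth inhibition of human KLE cells, read out with a cell viability assay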
Description: SANGER: Inhibition of human KLE cell growth in a cell viability assay.

KS-1 = format: functional, cell-based;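 note: growth inhibition of KS-1 cells, read out with a cell viability assay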
Description: SANGER: Inhibition of human KS-1 cell growth in a cell viability assay.

NCI-H1770 = format: functional, cell-based;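 note: growth inhibition of NCI-H1770 cells determined with a viability readout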
Description: SANGER: Inhibition of human NCI-H1770 cell growth in a cell viability assay.

KARPAS-299 = format: functional, cell-based
Description: SANGER: Inhibition of human KARPAS-299 cell growth in a cell viability assay.

MC116 = format: functional, cell-based;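 note: growth inhibition of MC116 cells, read out with a cell viability assay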
Description: SANGER: Inhibition of human MC116 cell growth in a cell viability assay.

MN-60 = format: functional, cell-based;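 note: growth inhibition of the MN-60 cell line, determined with a cell viability assay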
Description: SANGER: Inhibition of human MN-60 cell growth in a cell viability assay.

ES8 = format: functional, cell-based;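 note: growth inhibition of human ES8 cells, read out with a cell viability assay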
Description: SANGER: Inhibition of human ES8 cell growth in a cell viability assay.

GOTO = format: functional, cell-based;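 note: growth inhibition of GOTO cells, read out by a cell viability assay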
Description: SANGER: Inhibition of human GOTO cell growth in a cell viability assay.

LU-134-A = format: functional, cell-based
Description: SANGER: Inhibition of human LU-134-A cell growth in a cell viability assay.

MOLT-16 = format: functional, cell-based;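 note: growth inhibition of human MOLT-16 cells, read out with a cell viability assay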
Description: SANGER: Inhibition of human MOLT-16 cell growth in a cell viability assay.

KY821 = format: functional, cell-based;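 note: growth inhibition of human KY821 cells, read out by a cell viability assay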
Description: SANGER: Inhibition of human KY821 cell growth in a cell viability assay.

KNS-42 = format: functional, cell-based;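 note: growth inhibition of KNS-42 cells, read out with a cell viability assay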
Description: SANGER: Inhibition of human KNS-42 cell growth in a cell viability assay.

NTERA-2-cl-D1 = format: functional, cell-based;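 note: inhibition of cell growth, measured with a cell viability assay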
Description: SANGER: Inhibition of human NTERA-S-cl-D1 cell growth in a cell viability assay.

no-11 = format: functional, cell-based;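 note: growth inhibition of human NO-11 cells, read out with a cell viability assay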
Description: SANGER: Inhibition of human no-11 cell growth in a cell viability assay.

KMOE-2 = format: functional, cell-based;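 note: growth inhibition of human KMOE-2 cells, read out with a cell viability assay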
Description: SANGER: Inhibition of human KMOE-2 cell growth in a cell viability assay.

GAK = format: functional, cell-based;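 note: cell growth inhibition read out by a cell viability assay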
Description: SANGER: Inhibition of human GAK cell growth in a cell viability assay.

NCI-H1155 = format: functional, cell-based;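 note: cell growth inhibition measured by a viability assay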
Description: SANGER: Inhibition of human NCI-H1155 cell growth in a cell viability assay.

ETK-1 = format: functional, cell-based;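 note: growth inhibition of human ETK-1 cells, read out with a cell viability assay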
Description: SANGER: Inhibition of human ETK-1 cell growth in a cell viability assay.

NCI-H1355 = format: functional, cell-based;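 note: growth inhibition of human NCI-H1355 cells, read out by a cell viability assay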
Description: SANGER: Inhibition of human NCI-H1355 cell growth in a cell viability assay.

Ramos-2G6-4C10 = format: functional, cell-based;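 note: growth inhibition of the cell line, measured by a cell viability read-out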
Description: SANGER: Inhibition of human Ramos-2G6-4C10 cell growth in a cell viability assay.

J-RT3-T3-5 = format: functional, cell-based;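 note: cell viability assay measuring growth inhibition of human J-RT3-T3-5 cells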
Description: SANGER: Inhibition of human J-RT3-T3-5 cell growth in a cell viability assay.

SNU-C2B = format: functional, cell-based;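 note: cell viability readout used to measure compound-driven suppression of SNU-C2B cell proliferation, IC50 marking half-maximal growth inhibition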
Description: SANGER: Inhibition of human SNU-C2B cell growth in a cell viability assay.

LS-513 = format: functional, cell-based
Description: SANGER: Inhibition of human LS-513 cell growth in a cell viability assay.

HDLM-2 = format: functional, cell-based;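 note: cell viability assay measuring suppression of HDLM-2 proliferation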
Description: SANGER: Inhibition of human HDLM-2 cell growth in a cell viability assay.

LB831-BLC = format: functional, cell-based;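 note: growth inhibition of LB831-BLC cells, read out with a cell viability assay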
Description: SANGER: Inhibition of human LB831-BLC cell growth in a cell viability assay.

HCC2218 = format: functional, cell-based;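 note: cell viability assay read-out, with IC50 given as the concentration that inhibits growth of the cell line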
Description: SANGER: Inhibition of human HCC2218 cell growth in a cell viability assay.

Calu-6 = format: functional, cell-based;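 note: growth of human Calu-6 cells, read out by a cell viability assay, IC50 marking inhibition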
Description: SANGER: Inhibition of human Calu-6 cell growth in a cell viability assay.

MHH-PREB-1 = format: functional, cell-based;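 note: cell viability assay measuring inhibition of proliferation of human MHH-PREB-1 cells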
Description: SANGER: Inhibition of human MHH-PREB-1 cell growth in a cell viability assay.

KU812 cell line = format: functional, cell-based;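 note: growth inhibition of KU812 cells, read out with a cell viability assay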
Description: SANGER: Inhibition of human KU812 cell growth in a cell viability assay.

RPMI-8226 = format: functional, cell-based
Description: SANGER: Inhibition of human RPMI-8226 cell growth in a cell viability assay.

HL-60 = format: functional, cell-based;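 note: growth inhibition of human HL-60 cells, read out with a cell viability assay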
Description: SANGER: Inhibition of human HL-60 cell growth in a cell viability assay.

RXF 393 = format: functional, cell-based;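 note: growth inhibition of human RXF 393 cells, read out with a cell viability assay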
Description: SANGER: Inhibition of human RXF393 cell growth in a cell viability assay.

NCI-H1648 = format: functional, cell-based;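 note: cell viability assay measuring inhibition of NCI-H1648 cell growth, from the Sanger screening data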
Description: SANGER: Inhibition of human NCI-H1648 cell growth in a cell viability assay.

GB-1 = format: functional, cell-based;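 note: growth of GB-1 cells judged by a viability assay, IC50 marks the concentration inhibiting growth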
Description: SANGER: Inhibition of human GB-1 cell growth in a cell viability assay.

LB1047-RCC = format: functional, cell-based
Description: SANGER: Inhibition of human LB1047-RCC cell growth in a cell viability assay.

SK-PN-DW = format: functional, cell-based
Description: SANGER: Inhibition of human SK-PN-DW cell growth in a cell viability assay.

OCUB-M = format: functional, cell-based
Description: SANGER: Inhibition of human OCUB-M cell growth in a cell viability assay.

NCI-H69 = format: functional, cell-based
Description: SANGER: Inhibition of human NCI-H69 cell growth in a cell viability assay.

C8166 = format: functional, cell-based
Description: SANGER: Inhibition of human C8166 cell growth in a cell viability assay.

NOMO-1 = format: functional, cell-based
Description: SANGER: Inhibition of human NOMO-1 cell growth in a cell viability assay.

DMS-79 = format: functional, cell-based
Description: SANGER: Inhibition of human DMS-79 cell growth in a cell viability assay.

JVM-2 = format: functional, cell-based
Description: SANGER: Inhibition of human JVM-2 cell growth in a cell viability assay.

EC-GI-10 = format: functional, cell-based
Description: SANGER: Inhibition of human EC-GI-10 cell growth in a cell viability assay.

SNU1 = format: functional, cell-based
Description: SANGER: Inhibition of human NCI-SNU-1 cell growth in a cell viability assay.

Measured: IC50

Cn1cc(/C=C2\C(=O)Nc3cccnc32)c2ccccc21
972 nM: JAR
> 2000 nM: all other assays above

N#C/C(=C1/Nc2ccccc2S1)c1ccnc(NCCc2cccnc2)n1
3170 nM: MC116
1110 nM: NCI-H1355
1680 nM: LB1047-RCC
6030 nM: KS-1
4470 nM: C8166
6740 nM: GAK
1080 nM: OCUB-M
7850 nM: SNU-C2B
3740 nM: TK-10
1380 nM: MOLT-16
6600 nM: ES5
5690 nM: LB831-BLC
3710 nM: GI-1
2490 nM: EOL1
6650 nM: KU812 cell line
> 8000 nM: all other assays above
